Measured values published in patent US10239957B2, “Peptide containing conjugates for dual molecular delivery of oligonucleotides” (Merck Sharp & Dohme Corp., priority 2013, dated 2019).
Where no end group is shown, it is not given here. [ ]: non-standard residue; d: D form.

System: CTNNB1
Test: In vitro DMD assay: mRNA silencing enhancement by peptide conjugates after siRNA-IV treatment
Type: cell-based
Details: primary mouse hepatocytes, siRNA-IV 125 nM baseline
Experimental: Cryopreserved primary Mouse hepatocytes (Bioreclamation, LLC) were placed into Collagen Type I coated 96-well plates at 25,000 cells per well in serum-containing InVitroGRO CP media (Bioreclamation, LLC) and allowed 5 hours to attach. Media was replaced with InVitroGRO HI media and cells were treated with siRNA-IV at 125 nM [siRNA] for 1 hour. Media was replaced with InVitroGRO HI media and cells were treated for approximately 16 hours with experimental Peptide conjugates at various concentrations to establish a dose-response curve. Peptide conjugates were washed out after 16 hours with InVitroGRO HI media and cells allowed to incubate for an additional 24 hours. Cells were then lysed and mRNA expression of the siRNA target was measured by RT-qPCR (Applied Biosystems Taqman reagents). mRNA silencing activity of each Peptide conjugate was expressed as an enhancement above the baseline activity of 125 nM siRNA-IV alone with respect to the untreated cells and all siRNA target Ct values were normalized to PPIB mRNA for each well (dddCt) and summarized.
The structure of TGN-S-S-peptide is shown below and the activity data is listed in Table 5 (siRNA-IV concentration was kept at […]).

| Substance | In vitro dddCt (vs. baseline SCE dose) (Targeted peptide dose 8 nM) | In vitro dddCt (vs. baseline SCE dose) (Targeted peptide dose 40 nM) | In vitro dddCt (vs. baseline SCE dose) (Targeted peptide dose 200 nM) | In vitro dddCt (vs. baseline SCE dose) (Targeted peptide dose 1000 nM) | In vitro dddCt (vs. baseline SCE dose) (Targeted peptide dose 5000 nM) |
| --- | --- | --- | --- | --- | --- |
| TGN-S-S-SEQ ID NO: 1761 (D) ([dC]G[dL][dF]G[dE][dI][dE][dE][dL][dI][dE][dE]G[dL][dE][dN][dW][dI][dD][dW]G[dN]G; not fully specified (residue 1); also: disulfide to TGN peptide via Cys1; listed as Homo sapiens) | 0.08 | −0.25 | −0.22 | −0.07 | −0.11 |
| TGN-S-S-SEQ ID NO: 1762 (D) ([dC]G[dL][dF]G[dE][dI][dE][dE][dL][dI][dE][dE]G[dL][dE][dN][dF][dI][dD][dW]G[dN]G; not fully specified (residue 1); also: disulfide to TGN peptide via Cys1; listed as Homo sapiens) | −0.07 | 0.03 | −0.17 | −0.39 | −0.08 |
| TGN-S-S-SEQ ID NO: 1763 (D) ([dC]G[dL][dF]G[dE][dI][dE][dE][dL][dI][dE][dE]G[dL][dE][dN][dL][dW][dD][dW]G[dN]G; not fully specified (residue 1); also: disulfide to TGN peptide via Cys1; listed as Homo sapiens) | −0.13 | −0.67 | −1.26 | −1.44 | −1.29 |
| TGN-S-S-SEQ ID NO: 1764 (D) ([dC]G[dL][dF]G[dE][dI][dE][dE][dL][dI][dE][dE]G[dL][dE][dN][dL][dV][dD][dW]G[dN]G; not fully specified (residue 1); also: TGN conjugated via disulfide at Cys1; listed as Homo sapiens) | −0.03 | −0.41 | −0.78 | −0.62 | −0.75 |
| TGN-S-S-SEQ ID NO: 1765 (D) ([dC]G[dL][dF]G[dE][dI][dE][dE][dL][dI][dE][dE]G[dL][dE][dN][dL][dI][dE][dW]G[dN]G; not fully specified (residue 1); also: TGN conjugated via disulfide at Cys1; listed as Homo sapiens) | −0.04 | −0.38 | −0.88 | −1.23 | −1.23 |
| TGN-S-S-SEQ ID NO: 1772 (D) ([dC]G[dL][dF][dE][dA][dL][dL][dE][dL][dL][dE][dS][dL][dW][dE][dL][dL][dL][dE][dA]G[dY]G; not fully specified (residue 1); also: TGN conjugated via disulfide at Cys1; listed as Homo sapiens) | 0.03 | −0.15 | −0.15 | −0.17 | −0.08 |
| TGN-S-S-SEQ ID NO: 1775(D) ([dC]G[dL][dF][dE][dA][dL][dL][dE][dL][dL][dE][dS][dL][dW][dE][dL][dL][dL][dE][dA]; not fully specified (residue 1); also: TGN conjugated via disulfide at Cys1; listed as Homo sapiens) | −0.1 | −0.14 | −0.14 | −0.11 | −0.37 |
| TGN-S-S-SEQ ID NO: 1777 (D) ([dC]G[dN][dF]G[dE][dI][dE][dE][dL][dI][dE][dE]G[dL][dE][dN][dL][dI][dD][dW]G[dN]G; not fully specified (residue 1); also: TGN conjugated via disulfide at Cys1; listed as Homo sapiens) | −0.18 | 0.28 | −0.13 | −0.13 | 0.09 |
| TGN-S-S-SEQ ID NO: 1778 (D) ([dC]G[dL][dF][dA][dE][dI][dE][dE][dL][dI][dE][dE]G[dL][dE][dN][dL][dI][dD][dW]G[dN]G; not fully specified (residue 1); also: TGN conjugated via disulfide at Cys1; listed as Homo sapiens) | −0.38 | −0.57 | −0.91 | −1.54 |  |
| TGN-S-S-SEQ ID NO: 1779(D) ([dC]G[dL][dF][dE][dE][dI][dE][dE][dL][dI][dE][dE]G[dL][dE][dN][dL][dI][dD][dW]G[dN]G; not fully specified (residue 1); also: TGN conjugated via disulfide at Cys1; listed as Homo sapiens) | −0.18 | −0.24 | −1.29 | −1.52 | −1.51 |
| TGN-S-S-SEQ ID NO: 1780 (D) ([dC]G[dL][dF]G[dE][dI][dA][dE][dL][dI][dE][dE]G[dL][dE][dN][dL][dI][dD][dW]G[dN]G; not fully specified (residue 1); also: TGN conjugated via disulfide at Cys1; listed as Homo sapiens) | −0.11 | −1.05 | −2.83 | 0.18 | −3.2 |
| TGN-S-S-SEQ ID NO: 1781 (D) ([dC][dE][dL][dF]G[dE][dI][dE][dE][dL][dI][dE][dE]G[dL][dE][dN][dL][dI][dD][dW]G[dN]G; not fully specified (residue 1); also: TGN conjugated via disulfide at Cys1; listed as Homo sapiens) | −0.01 | −0.02 | 0.03 | −0.01 | 0.01 |
| TGN-S-S-SEQ ID NO: 1782 (D) ([dC][dA][dL][dF]G[dE][dI][dE][dE][dL][dI][dE][dE]G[dL][dE][dN][dL][dI][dD][dW]G[dN]G; not fully specified (residue 1); also: TGN conjugated via disulfide at Cys1; listed as Homo sapiens) | −0.14 | 0.43 | −0.17 | −0.21 |  |
| TGN-S-S-SEQ ID NO: 1784 (D) ([dC]G[dW][dF]G[dE][dI][dE][dE][dL][dI][dE][dE]G[dL][dE][dN][dL][dI][dD][dW]G[dN]G; not fully specified (residue 1); also: TGN conjugated via disulfide at Cys1; listed as Homo sapiens) | 0.07 | −0.22 | −0.57 | −1.01 | −0.81 |
| TGN-S-S-SEQ ID NO: 1785 (D) ([dC]G[dL][dF]G[dE][dL][dE][dE][dL][dI][dE][dE]G[dL][dE][dN][dL][dI][dD][dW]G[dN]G; not fully specified (residue 1); also: TGN conjugated via disulfide at Cys1; listed as Homo sapiens) | −0.1 | −0.44 | −1.68 | 0.84 | −2.03 |
| TGN-S-S-SEQ ID NO: 1786 (D) ([dC]G[dL][dF]G[dE][dI][dE][dE][dL][dW][dE][dE]G[dL][dE][dN][dL][dI][dD][dW]G[dN]G; not fully specified (residue 1); also: TGN conjugated via disulfide at Cys1; listed as Homo sapiens) | 0.17 | 0.13 | 0.06 | 0.06 | 0.18 |
| TGN-S-S-SEQ ID NO: 1793 (D) ([dC]G[dL][dL]G[dE][dI][dE][dE][dL][dI][dE][dE]G[dL][dE][dN][dL][dI][dD][dW]G[dN]G; not fully specified (residue 1); also: TGN conjugated via disulfide at Cys1; listed as Homo sapiens) | −0.02 | −1.04 | −2.36 | −2.75 | −2.65 |
